Experimental data published in patent US20160199351A1, “COMPOSITIONS AND METHODS FOR INHIBITING FUNGAL INFECTIONS” (priority 2015, published 2016).
Converted amounts (≈) assume the structure as drawn. Like-named read-outs stand apart in the source and are kept apart here.

Assays:
P. variotii = assay: MIC (Table 5); details: Paecilomyces variotii; for MIC: read-out: MIC 100%
Cryptococcus neoformans = assay: MIC against Cryptococcus neoformans (Table 4); details: for MIC50 / MIC: Cryptococcus neoformans; for MIC: read-out: MIC 100%
Aspergillus fumigatus = assay: Recovery of Aspergillus fumigatus mycelia growth after removal of antifungal drugs (MTT); assay type: cell-based; details: treated 12 hours, drug removed, 24 hours more
Paeceilomyces variotii = assay: MIC, CLSI M38-A2 broth dilution (Table 1); assay type: cell-based; details: isolate QC
Fusarium sp. = assay: MIC (Table 5); assay type: cell-based; details: for MIC / MIC50: Fusarium; for MIC: read-out: MIC 100%
Apophysomyces [1] = assay: MIC (Table 5)
Apophysomyces [2] = assay: MIC, CLSI M38-A2 broth dilution (Table 1); assay type: cell-based
Trichophyton rubrum = Trichophyton rubrum mycelia growth dose-response (MIC by linear regression); assay type: cell-based; details: for MIC: Trichophyton rubrum, FIG. 3 dose-response, linear regression
Blastomyces dermatitidis = assay: MIC, macrodilution method (Table 1); assay type: cell-based; details: 96 hours
Fusarium oxysporum = assay: MIC, CLSI M38-A2 broth dilution (Table 1); assay type: cell-based
Histoplasma capsulatum = assay: organism not typed; assay type: cell-based
Scedosporium apiospermum = assay: MIC, CLSI M38-A2 broth dilution (Table 1); assay type: cell-based
Rhizopus oryzae = assay: MIC (Table 5); details: Rhizopus arrhizus
Fusarium solani = assay: MIC, CLSI M38-A2 broth dilution (Table 1); assay type: cell-based; details: isolate FS1, 48 hours
C. glabrata = assay: MIC against Candida species (Table 4); details: for MIC50 / MIC: Nakaseomyces glabratus; for MIC: read-out: MIC 100%

## NCC(=O)Nc1ccc(-n2nc(C(F)(F)F)cc2-c2ccc3c(ccc4ccccc43)c2)cc1 [AR-12, 2-amino-N-(4-(5-(phenanthren-2-yl)-3-(trifluoromethyl)-1H-pyrazol-1-yl)phenyl)acetamide]
P. variotii
  MIC50: 4 µg/mL (≈ 8.69 µM)
  MIC: 4 µg/mL (≈ 8.69 µM)
P. variotii; 24 h
  MIC50: 2 µg/mL (≈ 4.34 µM)
  MIC: 4 µg/mL (≈ 8.69 µM)
Cryptococcus neoformans; 48 h, isolate CN-1, 48 hrs
  MIC50: 2 µg/mL (≈ 4.34 µM)
Cryptococcus neoformans; 48 h, isolate CN-2, 48 hrs
  MIC50: 4 µg/mL (≈ 8.69 µM)
Cryptococcus neoformans; 48 h, isolate CN-3, 48 hrs
  MIC50: 4 µg/mL (≈ 8.69 µM)
Cryptococcus neoformans; 48 h
  MIC: 4 µg/mL (≈ 8.69 µM)
Cryptococcus neoformans; 72 h, isolate CN-1, 72 hrs
  MIC50: 4 µg/mL (≈ 8.69 µM)
Cryptococcus neoformans; 72 h, isolate CN-2, 72 hrs
  MIC50: 4 µg/mL (≈ 8.69 µM)
Cryptococcus neoformans; 72 h, isolate CN-3, 72 hrs
  MIC50: 4 µg/mL (≈ 8.69 µM)
Cryptococcus neoformans; 72 h
  MIC: 4 µg/mL (≈ 8.69 µM)
Cryptococcus neoformans; isolate CN-2, 48 hrs
  MIC 100%: 4 µg/mL (≈ 8.69 µM)
Cryptococcus neoformans; isolate CN-2, 72 hrs
  MIC 100%: 4 µg/mL (≈ 8.69 µM)
Cryptococcus neoformans; isolate CN-3, 48 hrs
  MIC 100%: 4 µg/mL (≈ 8.69 µM)
Cryptococcus neoformans; isolate CN-3, 72 hrs
  MIC 100%: 4 µg/mL (≈ 8.69 µM)
Aspergillus fumigatus
  recovery of mycelia growth after removal of drug: no viable Aspergillus fumigatus mycelia
Paeceilomyces variotii
  MIC 50%: 4 gg/m1
  MIC 100%: 4 gg/m1
Fusarium sp.; 24 h, isolate F-1, 24 hrs
  MIC: 2 µg/mL (≈ 4.34 µM)
Fusarium sp.; 24 h, isolate F-2, 24 hrs
  MIC: 2 µg/mL (≈ 4.34 µM)
Fusarium sp.; 24 h, isolate F-3, 24 hrs
  MIC: 2 µg/mL (≈ 4.34 µM)
Fusarium sp.; isolate F-1, 48/72 hrs
  MIC50: 4 µg/mL (≈ 8.69 µM)
  MIC: 4 µg/mL (≈ 8.69 µM)
Fusarium sp.; isolate F-2, 48/72 hrs
  MIC: 4 µg/mL (≈ 8.69 µM)
  MIC 50%: 4 µg/mL (≈ 8.69 µM)
Fusarium sp.; isolate F-3, 48/72 hrs
  MIC: 4 µg/mL (≈ 8.69 µM)
  MIC 50%: 4 µg/mL (≈ 8.69 µM)
Fusarium sp.; isolate F-1, 24 hrs
  MIC50: 2 µg/mL (≈ 4.34 µM)
Fusarium sp.; isolate F-2, 24 hrs
  MIC 50%: 2 µg/mL (≈ 4.34 µM)
Fusarium sp.; isolate F-3, 24 hrs
  MIC 50%: 2 µg/mL (≈ 4.34 µM)
Apophysomyces [1]
  MIC50: 4 µg/mL (≈ 8.69 µM)
Apophysomyces [1]; 24 h
  MIC50: 2 µg/mL (≈ 4.34 µM)
Apophysomyces [1]; 24 h, read-out: MIC 100%, isolate AE-1, 24 hrs
  MIC: 4 µg/mL (≈ 8.69 µM)
Apophysomyces [1]; 24 h, read-out: MIC 100%, isolate AE-2, 24 hrs
  MIC: 4 µg/mL (≈ 8.69 µM)
Apophysomyces [1]; isolate AE-2, 48/72 hrs
  MIC 50%: 4 µg/mL (≈ 8.69 µM)
Apophysomyces [1]; isolate AE-2, 24 hrs
  MIC 50%: 2 µg/mL (≈ 4.34 µM)
Apophysomyces [1]; read-out: MIC 100%, isolate AE-1, 48/72 hrs
  MIC: 4 µg/mL (≈ 8.69 µM)
Apophysomyces [1]; read-out: MIC 100%, isolate AE-2, 48/72 hrs
  MIC: 4 µg/mL (≈ 8.69 µM)
Apophysomyces [2]; isolate A1, 24 hours
  MIC 50%: 2 gg/m1
  MIC 100%: >16 gg/m1
Apophysomyces [2]; isolate A2, 24 hours
  MIC 50%: 2 gg/m1
  MIC 100%: >16 gg/m1
Trichophyton rubrum; read-out: MIC, concentration resulting in 50% inhibition of mycelia growth
  MIC: 4.5 µM (≈ 2.07 µg/mL)
Trichophyton rubrum; read-out: MIC, concentration resulting in 90% inhibition of mycelia growth
  MIC: 11.3 µM (≈ 5.2 µg/mL)
Trichophyton rubrum; stated for all three fungi
  concentration that effectively prevents growth: 8 to 40 µM
Blastomyces dermatitidis; isolate BD1, macrodilution
  MIC 50%: 2 gg/m1
  MIC 100%: 4 gg/m1
Blastomyces dermatitidis; isolate BD2, macrodilution
  MIC 50%: 1 gg/m1
  MIC 100%: 2 gg/m1
Blastomyces dermatitidis; isolate BD3, macrodilution
  MIC 50%: 1 gg/m1
  MIC 100%: 1 gg/m1
Fusarium oxysporum; isolate FO1, 48 hours
  MIC 50%: 4 gg/m1
  MIC 100%: 4 gg/m1
Fusarium oxysporum; isolate FO2, 48 hours
  MIC 50%: 4 gg/m1
  MIC 100%: 4 gg/m1
Histoplasma capsulatum; read-out: MIC, concentration resulting in 50% inhibition of yeast growth
  MIC: 5.4 µM (≈ 2.49 µg/mL)
Histoplasma capsulatum; read-out: MIC, concentration resulting in 90% inhibition of yeast growth
  MIC: 15.9 µM (≈ 7.32 µg/mL)
Histoplasma capsulatum; stated for all three fungi
  concentration that effectively prevents growth: 8 to 40 µM
Scedosporium apiospermum; isolate SA1, 72 hours
  MIC 50%: 2 gg/m1
  MIC 100%: 2 gg/m1
Scedosporium apiospermum; isolate SA2, 72 hours
  MIC 50%: 1 gg/m1
  MIC 100%: 2 gg/m1
Rhizopus oryzae; 24 h, isolate R-1, 24 hrs
  MIC50: 4 µg/mL (≈ 8.69 µM)
Rhizopus oryzae; 24 h, isolate R-2, 24 hrs
  MIC50: 4 µg/mL (≈ 8.69 µM)
Rhizopus oryzae; 24 h, isolate R-3, 24 hrs
  MIC50: 4 µg/mL (≈ 8.69 µM)
Rhizopus oryzae; 24 h, isolate R-4, 24 hrs
  MIC50: 4 µg/mL (≈ 8.69 µM)
Rhizopus oryzae; 24 h, isolate R-5, 24 hrs
  MIC50: 2 µg/mL (≈ 4.34 µM)
Rhizopus oryzae; 24 h, isolate R-6, 24 hrs
  MIC50: 4 µg/mL (≈ 8.69 µM)
Rhizopus oryzae; 24 h, read-out: MIC 100%, isolate R-1, 24 hrs
  MIC: 4 µg/mL (≈ 8.69 µM)
Rhizopus oryzae; 24 h, read-out: MIC 100%, isolate R-2, 24 hrs
  MIC: 4 µg/mL (≈ 8.69 µM)
Rhizopus oryzae; 24 h, read-out: MIC 100%, isolate R-3, 24 hrs
  MIC: 4 µg/mL (≈ 8.69 µM)
Rhizopus oryzae; 24 h, read-out: MIC 100%, isolate R-4, 24 hrs
  MIC: 4 µg/mL (≈ 8.69 µM)
Rhizopus oryzae; 24 h, read-out: MIC 100%, isolate R-5, 24 hrs
  MIC: 4 µg/mL (≈ 8.69 µM)
Rhizopus oryzae; 24 h, read-out: MIC 100%, isolate R-6, 24 hrs
  MIC: 4 µg/mL (≈ 8.69 µM)
Rhizopus oryzae; isolate R-1, 48/72 hrs
  MIC50: 4 µg/mL (≈ 8.69 µM)
Rhizopus oryzae; isolate R-2, 48/72 hrs
  MIC50: 8 µg/mL (≈ 17.4 µM)
Rhizopus oryzae; isolate R-3, 48/72 hrs
  MIC50: 4 µg/mL (≈ 8.69 µM)
Rhizopus oryzae; isolate R-4, 48/72 hrs
  MIC50: 4 µg/mL (≈ 8.69 µM)
Rhizopus oryzae; isolate R-5, 48/72 hrs
  MIC50: 4 µg/mL (≈ 8.69 µM)
Rhizopus oryzae; isolate R-6, 48/72 hrs
  MIC50: 4 µg/mL (≈ 8.69 µM)
Rhizopus oryzae; read-out: MIC 100%, isolate R-1, 48/72 hrs
  MIC: 4 µg/mL (≈ 8.69 µM)
Rhizopus oryzae; read-out: MIC 100%, isolate R-2, 48/72 hrs
  MIC: 8 µg/mL (≈ 17.4 µM)
Rhizopus oryzae; read-out: MIC 100%, isolate R-3, 48/72 hrs
  MIC: 4 µg/mL (≈ 8.69 µM)
Rhizopus oryzae; read-out: MIC 100%, isolate R-4, 48/72 hrs
  MIC: 4 µg/mL (≈ 8.69 µM)
Rhizopus oryzae; read-out: MIC 100%, isolate R-5, 48/72 hrs
  MIC: 4 µg/mL (≈ 8.69 µM)
Rhizopus oryzae; read-out: MIC 100%, isolate R-6, 48/72 hrs
  MIC: 4 µg/mL (≈ 8.69 µM)
Fusarium solani
  MIC 50%: 4 gg/m1
  MIC 100%: 4 gg/m1
C. glabrata; 24 h, isolate CG-1, 24 hrs
  MIC50: 4 µg/mL (≈ 8.69 µM)
C. glabrata; 24 h, isolate CG-2, 24 hrs
  MIC50: 4 µg/mL (≈ 8.69 µM)
C. glabrata; 24 h, isolate CG-3, 24 hrs
  MIC50: 4 µg/mL (≈ 8.69 µM)
C. glabrata; 24 h, isolate CG-4, 24 hrs
  MIC50: 4 µg/mL (≈ 8.69 µM)
C. glabrata; 24 h, isolate CG-5, 24 hrs
  MIC50: 4 µg/mL (≈ 8.69 µM)
C. glabrata; 24 h, isolate CG-6, 24 hrs
  MIC50: 4 µg/mL (≈ 8.69 µM)
C. glabrata; 24 h, isolate CG-7, 24 hrs
  MIC50: 2 µg/mL (≈ 4.34 µM)
C. glabrata; 24 h, isolate CG-8, 24 hrs
  MIC50: 4 µg/mL (≈ 8.69 µM)
C. glabrata; 24 h, isolate CG-9, 24 hrs
  MIC50: 2 µg/mL (≈ 4.34 µM)
C. glabrata; 24 h, isolate CG-10, 24 hrs
  MIC50: 2 µg/mL (≈ 4.34 µM)
C. glabrata; 24 h
  MIC: 4 µg/mL (≈ 8.69 µM)
C. glabrata; 48 h, isolate CG-1, 48 hrs
  MIC50: 4 µg/mL (≈ 8.69 µM)
C. glabrata; 48 h, isolate CG-2, 48 hrs
  MIC50: 4 µg/mL (≈ 8.69 µM)
C. glabrata; 48 h, isolate CG-3, 48 hrs
  MIC50: 4 µg/mL (≈ 8.69 µM)
C. glabrata; 48 h, isolate CG-4, 48 hrs
  MIC50: 4 µg/mL (≈ 8.69 µM)
C. glabrata; 48 h, isolate CG-5, 48 hrs
  MIC50: 4 µg/mL (≈ 8.69 µM)
C. glabrata; 48 h, isolate CG-6, 48 hrs
  MIC50: 4 µg/mL (≈ 8.69 µM)
C. glabrata; 48 h, isolate CG-7, 48 hrs
  MIC50: 4 µg/mL (≈ 8.69 µM)
C. glabrata; 48 h, isolate CG-8, 48 hrs
  MIC50: 4 µg/mL (≈ 8.69 µM)
C. glabrata; 48 h, isolate CG-9, 48 hrs
  MIC50: 4 µg/mL (≈ 8.69 µM)
C. glabrata; 48 h, isolate CG-10, 48 hrs
  MIC50: 4 µg/mL (≈ 8.69 µM)
C. glabrata; 48 h
  MIC: 4 µg/mL (≈ 8.69 µM)
C. glabrata; isolate CG-1, 24 hrs
  MIC 100%: 4 µg/mL (≈ 8.69 µM)
C. glabrata; isolate CG-1, 48 hrs
  MIC 100%: 4 µg/mL (≈ 8.69 µM)
C. glabrata; isolate CG-2, 24 hrs
  MIC 100%: 4 µg/mL (≈ 8.69 µM)
C. glabrata; isolate CG-2, 48 hrs
  MIC 100%: 4 µg/mL (≈ 8.69 µM)
C. glabrata; isolate CG-4, 24 hrs
  MIC 100%: 4 µg/mL (≈ 8.69 µM)
C. glabrata; isolate CG-4, 48 hrs
  MIC 100%: 4 µg/mL (≈ 8.69 µM)
C. glabrata; isolate CG-5, 24 hrs
  MIC 100%: 4 µg/mL (≈ 8.69 µM)
C. glabrata; isolate CG-5, 48 hrs
  MIC 100%: 4 µg/mL (≈ 8.69 µM)
C. glabrata; isolate CG-6, 24 hrs
  MIC 100%: 4 µg/mL (≈ 8.69 µM)
C. glabrata; isolate CG-6, 48 hrs
  MIC 100%: 4 µg/mL (≈ 8.69 µM)
C. glabrata; isolate CG-7, 24 hrs
  MIC 100%: 4 µg/mL (≈ 8.69 µM)
C. glabrata; isolate CG-7, 48 hrs
  MIC 100%: 4 µg/mL (≈ 8.69 µM)
C. glabrata; isolate CG-8, 24 hrs
  MIC 100%: 4 µg/mL (≈ 8.69 µM)
C. glabrata; isolate CG-8, 48 hrs
  MIC 100%: 4 µg/mL (≈ 8.69 µM)
C. glabrata; isolate CG-9, 24 hrs
  MIC 100%: 4 µg/mL (≈ 8.69 µM)
C. glabrata; isolate CG-9, 48 hrs
  MIC 100%: 4 µg/mL (≈ 8.69 µM)
C. glabrata; isolate CG-10, 24 hrs
  MIC 100%: 4 µg/mL (≈ 8.69 µM)
C. glabrata; isolate CG-10, 48 hrs
  MIC 100%: 4 µg/mL (≈ 8.69 µM)
